Values after ≈ are worked out from the molar mass of the structure shown. Where two headings read alike, the source gives them in different places.
Experiments:
[1] = test system: A. funigatus (CEA10 strain); assay: Efficacy study against pulmonary aspergillosis in neutropenic mice: survival; format: in vivo; settings: 15 mg/kg QD IP for 7 days, monitored until day 14
From the text: Efficacy study (FIG. 22): Healthy mice were divided as 10 mice/group. […] Animals were infected with A. funigatus (CEA10 strain) (intranasal) on day 0. […] Survivability of the animals were monitored during the course of the study.

Epidermophyton floccosum = assay: MIC against yeasts (Table 3A); format: cell-based; settings: 2 isolates
C. albicans SN250 = assay: In vivo efficacy in murine candidiasis model (C. albicans SN250), female CD-1 mice, kidney fungal burden
Fusarium solani = assay: MIC against moulds; format: cell-based
Mucor velutinosus = assay: MIC against moulds; format: cell-based; settings: 6 isolates, AmB (AmBisome)
Saksenaea sp. = assay: MIC against moulds; format: cell-based; settings: 4 isolates; AmB (AmBisome)
Microsporum canis = assay: MIC against yeasts (Table 3A); format: cell-based; settings: 2 isolates
Mucor circinelloides = assay: MIC against moulds; format: cell-based; settings: for MIC Mucor circinelloides: 6 isolates, AmB (AmBisome)
[2] = test system: P. variotii MYA-3630 (QC); assay: MIC against moulds; format: cell-based; settings: 5 isolates, AmB (AmBisome)
Scedosporium boydii = assay: MIC against rare moulds resistant to AmB; format: cell-based; settings: 6 isolates, Table 4
Scedosporium apiospermum = assay: MIC against yeasts (Table 3A); format: cell-based; settings: 2 isolates
Lomentospora prolificans = assay: MIC against rare moulds resistant to AmB; format: cell-based; settings: 6 isolates, Table 4
Sporothrix schenckii = assay: MIC against rare moulds resistant to AmB; format: cell-based; settings: 6 isolates, Table 4
[3] = Blood plasma stability, mouse; format: in vitro ADME
KIM1, LCN2, TIMP1, SPP1 = settings: mouse, in vivo
Cunninghamella sp. = assay: MIC against moulds; format: cell-based; settings: 6 isolates, AmB (AmBisome)
Cryptococcus neoformans = assay: MIC against yeasts; format: cell-based
[4] = test system: Trichophyton mentagropytes; assay: MIC against yeasts (Table 3A); format: cell-based; settings: 3 isolates
Scedosporium aurantiacum = assay: MIC against rare moulds resistant to AmB; format: cell-based; settings: 4 isolates, Table 4
Candida tropicalis = assay: MIC against yeasts; format: cell-based; settings: 10 isolates, Table 3A
Claophialophora bantiana = assay: MIC against moulds; format: cell-based; settings: 6 isolates; AmB (AmBisome)
Candida krusei = assay: MIC against yeasts; format: cell-based
[5] = Mouse single IV injection: mortality
Trichophyton rubrum = assay: MIC against yeasts (Table 3A); format: cell-based; settings: 3 isolates
Scedosporium prolificans = assay: MIC against yeasts (Table 3A); format: cell-based; settings: Lomentospora prolificans, 2 isolates
Syncephalastrum sp. = assay: MIC against moulds; format: cell-based; settings: 6 isolates, AmB (AmBisome)
moulds = assay: MICavg / Average MIC against moulds; format: cell-based; settings: for MIC: 157 isolates, Table 2
[6] = Tolerance study, IP dosing in immunocompromised mice, no infection; settings: 25 mg/kg QD IP 7 days, observed 14 days
A. calldoustus = assay: MIC against moulds; format: cell-based; settings: 6 isolates; AmB (AmBisome)
P450 3A4 = P450 3A4 (Homo sapiens, UniProt P08684); assay: P450 inhibition 3A4; format: in vitro ADME
P450 1A2 = P450 1A2 (Homo sapiens, UniProt P05177); assay: P450 inhibition 1A2; format: in vitro ADME
P450 2D6 = P450 2D6 (Homo sapiens, UniProt P10635); assay: P450 inhibition 2D6; format: in vitro ADME
P450 2C19 = P450 2C19 (Homo sapiens, UniProt P33261); assay: P450 inhibition 2C19; format: in vitro ADME
P450 2C9 = P450 2C9 (Homo sapiens, UniProt P11712); assay: P450 inhibition 2C9; format: in vitro ADME
Solubility in D5W = settings: in D5W
[7] = 2 isolates, Table 3, read-out: MIC Candida krusei

Sequence of P450 2D6 (P10635 whole entry): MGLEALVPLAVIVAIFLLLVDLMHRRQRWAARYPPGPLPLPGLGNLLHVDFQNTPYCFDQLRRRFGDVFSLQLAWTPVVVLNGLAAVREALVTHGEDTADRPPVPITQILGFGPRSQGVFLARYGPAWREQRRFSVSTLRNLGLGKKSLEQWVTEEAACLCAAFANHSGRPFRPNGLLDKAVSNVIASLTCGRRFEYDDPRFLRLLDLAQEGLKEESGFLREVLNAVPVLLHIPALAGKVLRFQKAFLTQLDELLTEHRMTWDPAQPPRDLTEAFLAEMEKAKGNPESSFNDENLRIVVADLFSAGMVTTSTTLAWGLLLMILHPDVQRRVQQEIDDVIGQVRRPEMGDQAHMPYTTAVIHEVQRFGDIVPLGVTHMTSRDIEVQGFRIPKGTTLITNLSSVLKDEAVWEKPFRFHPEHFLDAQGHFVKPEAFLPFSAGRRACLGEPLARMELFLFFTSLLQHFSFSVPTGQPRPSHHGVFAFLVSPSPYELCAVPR
Sequence of P450 1A2 (P05177 whole entry): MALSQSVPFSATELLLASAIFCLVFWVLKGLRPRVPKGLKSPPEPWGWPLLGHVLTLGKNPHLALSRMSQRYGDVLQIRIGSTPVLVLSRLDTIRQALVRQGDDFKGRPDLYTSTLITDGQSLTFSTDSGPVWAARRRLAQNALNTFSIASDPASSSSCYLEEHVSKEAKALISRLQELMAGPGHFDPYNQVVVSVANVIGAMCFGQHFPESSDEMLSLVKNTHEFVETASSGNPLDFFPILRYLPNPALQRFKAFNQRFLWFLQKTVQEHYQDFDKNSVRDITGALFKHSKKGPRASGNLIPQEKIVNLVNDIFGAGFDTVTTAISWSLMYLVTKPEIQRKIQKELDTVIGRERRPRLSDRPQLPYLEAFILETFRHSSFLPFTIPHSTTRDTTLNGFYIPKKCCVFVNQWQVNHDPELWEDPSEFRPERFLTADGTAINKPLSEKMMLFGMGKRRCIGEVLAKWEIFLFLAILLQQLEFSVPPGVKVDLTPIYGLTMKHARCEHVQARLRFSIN
Sequence of P450 2C19 (P33261 whole entry): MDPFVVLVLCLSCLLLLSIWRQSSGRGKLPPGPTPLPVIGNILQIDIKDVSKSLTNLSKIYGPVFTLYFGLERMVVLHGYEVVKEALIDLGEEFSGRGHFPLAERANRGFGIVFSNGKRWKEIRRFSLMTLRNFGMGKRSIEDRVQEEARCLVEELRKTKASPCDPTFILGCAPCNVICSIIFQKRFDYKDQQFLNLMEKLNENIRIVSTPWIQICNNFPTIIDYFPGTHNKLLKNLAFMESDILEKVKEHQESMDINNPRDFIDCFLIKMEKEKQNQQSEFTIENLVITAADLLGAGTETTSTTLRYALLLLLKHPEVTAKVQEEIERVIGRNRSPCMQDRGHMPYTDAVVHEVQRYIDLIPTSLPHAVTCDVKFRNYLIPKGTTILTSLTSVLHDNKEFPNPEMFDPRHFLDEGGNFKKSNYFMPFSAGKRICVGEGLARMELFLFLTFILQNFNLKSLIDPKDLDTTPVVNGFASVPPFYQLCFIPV
Sequence of P450 3A4 (P08684 whole entry): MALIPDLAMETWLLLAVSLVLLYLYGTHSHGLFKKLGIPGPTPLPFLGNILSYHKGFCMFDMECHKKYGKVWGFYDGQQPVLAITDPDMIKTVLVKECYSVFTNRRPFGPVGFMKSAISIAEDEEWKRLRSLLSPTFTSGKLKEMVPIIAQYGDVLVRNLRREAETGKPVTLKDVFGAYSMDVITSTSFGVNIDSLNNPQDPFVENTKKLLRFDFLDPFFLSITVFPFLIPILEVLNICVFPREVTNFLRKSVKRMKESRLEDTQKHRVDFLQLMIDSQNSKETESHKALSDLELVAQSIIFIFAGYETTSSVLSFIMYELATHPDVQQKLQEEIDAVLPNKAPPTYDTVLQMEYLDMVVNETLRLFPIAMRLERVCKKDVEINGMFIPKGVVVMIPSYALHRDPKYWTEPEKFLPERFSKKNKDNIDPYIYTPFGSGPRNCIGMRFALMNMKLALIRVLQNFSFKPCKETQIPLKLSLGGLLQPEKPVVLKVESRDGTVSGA
Sequence of P450 2C9 (P11712 whole entry): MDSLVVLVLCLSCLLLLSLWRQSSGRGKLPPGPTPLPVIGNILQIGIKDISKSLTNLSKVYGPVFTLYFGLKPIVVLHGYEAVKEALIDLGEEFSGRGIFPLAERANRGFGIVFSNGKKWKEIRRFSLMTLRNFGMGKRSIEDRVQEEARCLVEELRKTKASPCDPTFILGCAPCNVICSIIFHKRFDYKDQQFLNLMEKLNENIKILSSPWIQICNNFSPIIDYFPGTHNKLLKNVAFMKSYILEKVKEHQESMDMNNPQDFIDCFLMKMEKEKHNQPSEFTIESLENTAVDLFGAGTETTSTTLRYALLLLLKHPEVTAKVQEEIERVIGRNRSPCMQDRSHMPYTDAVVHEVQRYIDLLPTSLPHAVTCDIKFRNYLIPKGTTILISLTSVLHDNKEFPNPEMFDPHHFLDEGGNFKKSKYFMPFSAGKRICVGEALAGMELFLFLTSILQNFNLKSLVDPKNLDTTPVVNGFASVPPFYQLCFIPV

C[C@@H]1[C@H](O)[C@@H](C)/C=C/C=C/C=C/C=C/C=C/C=C/C=C/[C@H](OC2O[C@H](C)[C@@H](O)[C@H](N)[C@@H]2O)C[C@@H]2O[C@](O)(C[C@@H](O)C[C@@H](O)[C@H](O)CC[C@@H](O)C[C@@H](O)CC(=O)O[C@H]1C)C[C@H](O)[C@H]2C(=O)O (some centres unmarked) [AmB, Amphotericin B]
Survival [1]: 80%
MIC (Epidermophyton floccosum): 0.38 µM (≈ 0.351 µg/mL)
Mouse candidiasis model 5 mpk; Log (CFU/mL) (C. albicans SN250): 5.2 Log (CFU/mL)
MIC (Fusarium solani; Fusarium solani, 2 isolates, Table 3A): 3 µM (≈ 2.77 µg/mL)
MIC (Fusarium solani; Fusarium solani, 6 isolates, AmB (AmBisome)): 1.33 µM (≈ 1.23 µg/mL)
MIC (Mucor velutinosus; Mucor velutinosus): 0.08 µM (≈ 0.0739 µg/mL)
MIC (Saksenaea sp.): 0.06 µM (≈ 0.0554 µg/mL)
MIC (Microsporum canis): 0.56 µM (≈ 0.517 µg/mL)
MIC (Mucor circinelloides; Mucor circinelloides, read-out: MIC Mucor circinelloides): 0.125 µM (≈ 0.116 µg/mL)
MIC ([2]; Paecilomyces variotii): 1 µM (≈ 0.924 µg/mL)
MIC (Scedosporium boydii; Scedosporium boydii): > 16 µM
MIC (Scedosporium apiospermum): > 16 µM
MIC (Lomentospora prolificans; Lomentospora prolificans): > 16 µM
MIC (Sporothrix schenckii; Sporothrix schenckii): 4 µM (≈ 3.7 µg/mL)
half-life ([3]; mouse, blood plasma, read-out: Blood Plasma Stability (T1/2, min) Mouse): > 289 min
Renal toxicity biomarkers KIM1, LCN2, TIMP1, SPP1 (KIM1, LCN2, TIMP1, SPP1): elevated
MIC (Cunninghamella sp.; Cunninghamella): 2 µM (≈ 1.85 µg/mL)
MIC (Cryptococcus neoformans; Cryptococcus neoformans, 3 isolates, Table 3A): 1.17 µM (≈ 1.08 µg/mL)
MIC (Cryptococcus neoformans; Cryptococcus neoformans, 10 isolates, Table 3): 0.55 µM (≈ 0.508 µg/mL)
MIC [4]: 4 µM (≈ 3.7 µg/mL)
MIC (Scedosporium aurantiacum; Scedosporium aurantiacum): > 16 µM
MIC (Candida tropicalis): 0.8 µM (≈ 0.739 µg/mL)
MIC (Claophialophora bantiana): 0.375 µM (≈ 0.347 µg/mL)
MIC (Candida krusei; Pichia kudriavzevii, read-out: MIC Candida krasei): 2.5 µM (≈ 2.31 µg/mL)
MIC (Candida krusei; Pichia kudriavzevii, 2 isolates, Table 3, read-out: MIC Candida krusei): 1 µM (≈ 0.924 µg/mL)
Mouse single IV injection: mortality (40 mpk) [5]: 0/3
MIC (Trichophyton rubrum): 1.1 µM (≈ 1.02 µg/mL)
MIC (Scedosporium prolificans): > 16 µM
MIC (Syncephalastrum sp.; Syncephalastrum): 0.06 µM (≈ 0.0554 µg/mL)
MICavg moulds (3 strains) (moulds): 0.92
MIC (moulds): 0.9 µM (≈ 0.832 µg/mL)
MICavg moulds (159 strains) (moulds): 0.9
Survival [6]: 66%
MIC (A. calldoustus): 1.5 µM (≈ 1.39 µg/mL)

CC1C=CC=CC=CC=CC=CC=CC=CC(OC2OC(C)C(O)C(N)C2O)CC2OC(O)(CC(O)CC(O)C(O)CCC(O)CC(O)CC(=O)OC(C)C(C)C1O)CC(O)C2C(=O)NC(CO)CO (centres unmarked) [Compound 1]
P450 Inhibition (%) 3A4 (P450 3A4): 14.5%
Mouse candidiasis model 5 mpk; Log (CFU/mL) (C. albicans SN250): 4.8 Log (CFU/mL)
MIC (Fusarium solani; 6 isolates, AmB (AmBisome)): 5.67 µM (≈ 5.65 µg/mL)
MIC (Mucor velutinosus): 0.67 µM (≈ 0.668 µg/mL)
MIC (Saksenaea sp.): 0.23 µM (≈ 0.229 µg/mL)
MIC Mucor circinelloides (Mucor circinelloides): 0.58 µM (≈ 0.578 µg/mL)
MIC [2]: 2 µM (≈ 1.99 µg/mL)
MIC (Scedosporium boydii): >16 µM
MIC (Lomentospora prolificans): >16 µM
MIC (Sporothrix schenckii): 6 µM (≈ 5.98 µg/mL)
P450 Inhibition (%) 1A2 (P450 1A2): 8.7%
Blood Plasma Stability (T1/2, min) Mouse [3]: >289; >289 min
P450 Inhibition (%) 2D6 (P450 2D6): 0.0%
MIC (Cunninghamella sp.): 4 µM (≈ 3.99 µg/mL)
MIC (Cryptococcus neoformans; 10 isolates, Table 3): 2 µM (≈ 1.99 µg/mL)
P450 Inhibition (%) 2C19 (P450 2C19): 0.0%
MIC (Scedosporium aurantiacum): >16 µM
MIC (Claophialophora bantiana): 1.17 µM (≈ 1.17 µg/mL)
MIC (Candida krusei; [7]): 2 µM (≈ 1.99 µg/mL)
Mouse single IV injection: mortality (40 mpk) [5]: 0/4
MIC (Syncephalastrum sp.): 0.5 µM (≈ 0.499 µg/mL)
P450 Inhibition (%) 2C9 (P450 2C9): 26.9%
MICavg moulds (3 strains) (moulds): 1.6
MIC (moulds): 1.4 µM (≈ 1.4 µg/mL)
MICavg moulds (159 strains) (moulds): 1.4
Solubility (Solubility in D5W): >7220 µM
MIC (A. calldoustus): 2.17 µM (≈ 2.16 µg/mL)

CC1C=CC=CC=CC=CC=CC=CC=CC(OC2OC(C)C(O)C(N)C2O)CC2OC(O)(CC(O)CC(O)C(O)CCC(O)CC(O)CC(=O)OC(C)C(C)C1O)CC(O)C2C(=O)NC(CO)(CO)CO (centres unmarked) [Compound 2]
P450 Inhibition (%) 3A4 (P450 3A4): 14.5%
MIC (Fusarium solani; 6 isolates, AmB (AmBisome)): 14 µM (≈ 14.4 µg/mL)
MIC (Mucor velutinosus): 1.17 µM (≈ 1.2 µg/mL)
MIC (Saksenaea sp.): 0.36 µM (≈ 0.37 µg/mL)
MIC Mucor circinelloides (Mucor circinelloides): 0.92 µM (≈ 0.945 µg/mL)
MIC [2]: 2.67 µM (≈ 2.74 µg/mL)
MIC (Scedosporium boydii): >16 µM
MIC (Lomentospora prolificans): >16 µM
MIC (Sporothrix schenckii): >5.2 µM
P450 Inhibition (%) 1A2 (P450 1A2): 0.0%
Blood Plasma Stability (T1/2, min) Mouse [3]: 265.1 min
P450 Inhibition (%) 2D6 (P450 2D6): 0.0%
MIC (Cunninghamella sp.): 5.33 µM (≈ 5.48 µg/mL)
MIC (Cryptococcus neoformans; 10 isolates, Table 3): 2 µM (≈ 2.05 µg/mL)
P450 Inhibition (%) 2C19 (P450 2C19): 1.1%
MIC (Scedosporium aurantiacum): >16 µM
MIC (Claophialophora bantiana): 1.83 µM (≈ 1.88 µg/mL)
MIC (Candida krusei; [7]): 3 µM (≈ 3.08 µg/mL)
MIC (Syncephalastrum sp.): 1 µM (≈ 1.03 µg/mL)
P450 Inhibition (%) 2C9 (P450 2C9): 0.0%
MICavg moulds (3 strains) (moulds): 1
MIC (moulds): 2.6 µM (≈ 2.67 µg/mL)
MICavg moulds (159 strains) (moulds): 2.6
Solubility (Solubility in D5W): 366 µM (≈ 376 µg/mL)
MIC (A. calldoustus): 2.33 µM (≈ 2.39 µg/mL)
